Results: US9421273B2, “Silicon-containing fumaric acid esters” (Biogen Idec MA Inc., priority 2011, dated 2016)
Counter-ions that a name gives are not always drawn.

What was measured:
[1] = tested on: Nrf2 (ARE-luciferase reporter) in DLD-1/ARE-E2 cells; experiment: Nrf2 activation cell-based assay, ARE-luciferase reporter, DLD-1/ARE-E2 cell line; design: species or system Human; conditions: for Concentration at maximum Nrf2 activation fold change (@ [uM]) / Maximum Nrf2 Activation Fold Change: DLD-1/ARE-E2; for Maximum Nrf2 Activation Fold Change: luciferase fold change over DMSO control; for Activation of ARE-dependent signaling of the luciferase reporter construct: summary in words of Table 1 (both reporter cell lines)
Experimental: (§1) Human cancer cell line DLD-1 and breast cancer cell line MCF7 reporter stable cell lines were generated by transfection with a firefly luciferase reporter construct harboring the luciferase cDNA cloned downstream of eight catenated copies of the antioxidant response element (ARE: SEQ ID NO.:1).
(§2) To measure Nrf2 activation in the ARE-luciferase reporter cell lines, the cells were plated in 96-well plates at 20-50 k cells/well 24 hours prior to stimulation with the test compounds. The test compounds were prepared in dimethylsulfoxide (DMSO) and diluted with culture media to required concentrations (final DMSO concentrations <0.3%). The reporter cells were harvested 24 hours-48 hours after addition of the compounds and lysed for detection of luciferase activity. Luciferase activity in the lysates was monitored using the Bright-Glo Luciferase Assay System of Promega and Tecan Genios Pro plate reader.
(§3) Luciferase induction in the compound-treated cells was calculated as fold change over the baseline activity detected in control cultures treated with DMSO-containing media.

[2] = tested on: Nrf2 (ARE-luciferase reporter) in MCF7/ARE-D3 cells; experiment: Nrf2 activation cell-based assay, ARE-luciferase reporter, MCF7/ARE-D3 cell line; design: species or system Human; conditions: for Maximum Nrf2 Activation Fold Change: luciferase fold change over DMSO control
Experimental: as §1, §2, §3

Structure (SMILES) | Concentration at maximum Nrf2 activation fold change (@ [uM]) ([1]; 24 hr stimulation) [µM] | Maximum Nrf2 Activation Fold Change ([1]; 24 hr stimulation) | Concentration at maximum Nrf2 activation fold change (@ [uM]) ([1]; 48 hr stimulation) [µM] | Maximum Nrf2 Activation Fold Change ([1]; 48 hr stimulation) | Concentration at maximum Nrf2 activation fold change (@ [uM]) ([2]; 24 hr stimulation) [µM] | Maximum Nrf2 Activation Fold Change ([2]; 24 hr stimulation) | Concentration at maximum Nrf2 activation fold change (@ [uM]) ([2]; 48 hr stimulation) [µM] | Maximum Nrf2 Activation Fold Change ([2]; 48 hr stimulation) | Activation of ARE-dependent signaling of the luciferase reporter construct [1]
COC(=O)/C=C/C(=O)OC [DMF, dimethyl fumarate, reference compound] | 31 | 11 | 47 | 13 | 94 | 24 | 94 | 45 | –
COC(=O)/C=C/C(=O)O[Si](C)(C)OC(=O)/C=C/C(=O)OC [Compound 11, (E)-O,O′-(dimethylsilanediyl)dimethyl difumarate] | 1000 | 42 | 1000 | 43 | 750 | 97 | 500 | 126 | able to activate ARE-dependent signaling
COC(=O)/C=C/C(=O)O [MMF, monomethyl fumarate, reference compound] | 1000 | 7 | 1000 | 14 | 1000 | 56 | 1000 | 88 | –
COC(=O)/C=C/C(=O)OC[Si](OC)(OC)OC [Compound 12, methyl ((trimethoxysilyl)methyl) fumarate] | 250 | 24 | 375 | 48 | 500 | 49 | 500 | 65 | able to activate ARE-dependent signaling
